Patent publication US7250433B2, “Tetrazole and oxadiazolone substituted β-amino acid derivatives” (Warner Lambert Company LLC, priority 2003, dated 2007)

Row | melting point | Compound
1 | 216 °C (dec.) | CC(CC1CCCCC1)C(CN)c1nnn[nH]1 (stereo not drawn)
2 | 231 to 235 °C (dec.) | NCC1(C(=O)O)CC12CCCC2 (stereo not drawn)
3 | 178 to 179 °C | CC(C)C1CC1(CN)c1noc(=O)[nH]1.Cl (stereo not drawn)
4 | > 250 °C (dec.) | CC(C)C(C)C(CN)c1nnn[nH]1 (stereo not drawn)
5 | 254 to 255 °C | CC(C)CC1CC1(CN)C(=O)O.Cl (stereo not drawn)
6 | 205 °C (dec.) | CCC(C(C)C)C(CN)c1nnn[nH]1 (stereo not drawn)
7 | 152 °C (dec.) | CC(CCc1ccccc1)C(CN)c1nnn[nH]1 (stereo not drawn)
8 | 181 to 182 °C | CC(C)CC1CC1(CN)c1noc(=O)[nH]1.Cl (stereo not drawn)
9 | 179 to 181 °C (dec.) | Cl.NCC1(c2noc(=O)[nH]2)CC12CCCCC2 (stereo not drawn)
10 | 194 °C (dec.) | CC(CC1CCCC1)C(CN)c1nnn[nH]1 (stereo not drawn)
11 | 186 °C (dec.) | CC(Cc1ccc(F)cc1)C(CN)c1nnn[nH]1 (stereo not drawn) [Example 26, 4-(4-Fluoro-phenyl)-3-methyl-2-(1H-tetrazol-5-yl)-butylamine]

Further lines, the compound ahead of its results:

Row | Compound | melting point
12 | CC(C)CCC[C@@H](C)CCC(CN)c1nnn[nH]1 (stereo partly drawn) | 185 °C (dec.)
13 | CC(C)C1CC1(CN)c1nnn[nH]1 (stereo not drawn) | > 250 °C (dec.)
14 | NCC(CC1CCCCC1)c1nnn[nH]1 (stereo not drawn) | > 250 °C (dec.)
15 | CC(C)C1CC1(CN)C(=O)O.Cl (stereo not drawn) | 245 to 246 °C
16 | CC(Cc1cccc(C(F)(F)F)c1)C(CN)c1nnn[nH]1 (stereo not drawn) | 163 °C (dec.)
17 | Cl.NCC1(c2noc(=O)[nH]2)CC12CCCC2 (stereo not drawn) | 206 to 208 °C
18 | CCC(CC)C1CC1(CN)c1nnn[nH]1 (stereo not drawn) | > 250 °C (dec.)
